≈ marks a conversion by molar mass, not a printed value.

For the series the following is noted: buffer; pH 7.4; 200.0 µM.
Compound `O=C(CN1C(=O)c2cccc([N+](=O)[O-])c2C1=O)NNC(=O)c1ccc(F)cc1` came in with a solubility (kinetic) of over 0.0579 mg/mL. The compound `O=C(Cc1ccccc1Cl)NC1(O)C(=O)c2ccccc2C1=O` came in with a solubility (kinetic) of over 0.0495 mg/mL. Next, `O=S(=O)(/N=C(/Nc1cccnc1)c1ccccc1)c1ccc(F)cc1F`: over 0.056 mg/mL; `CC(C)N1C(=O)C(=O)N(CC(=O)N(C)c2ccccc2)C1=O`: over 0.0455 mg/mL. Next, `Cc1ccc(S(=O)(=O)NCC(=O)OCC(=O)Nc2cccc(S(=O)(=O)N3CCOCC3)c2)cc1`: over 0.0767 mg/mL.

In turn, `CCOc1cc2c(cc1/C=C/c1noc(C)c1[N+](=O)[O-])OC(C)C2` (centres undefined) had a solubility (kinetic) of under 0.0004 mg/mL. Next, `O=[N+]([O-])c1ccc(N2CCCCC2)nc1N1CCCCC1`: 0.0053 mg/mL (≈ 18.3 µM); `c1ccc(CCN2CN=C(Nc3nc4ccccc4s3)NC2)cc1`: under 0.0001 mg/mL; `c1ccc(-c2csc3ncnc(NCc4ccccn4)c23)cc1`: 0.0401 mg/mL (≈ 126 µM).

As for `S=C(NCCc1ccc(Cl)cc1)NC1CCCCC1`, the kinetic solubility came to 0.004 mg/mL (≈ 13.5 µM). Next, `O=C(N/N=C/c1ccc2nccnc2c1)c1ccncc1`: over 0.0416 mg/mL; `Cc1cccc2c1NC(=O)C21OCC(CO)([N+](=O)[O-])CO1` (centres undefined): 0.0248 mg/mL (≈ 84.3 µM). Next, `O=C([O-])c1cc(-c2cccnc2)nc2ccccc12.[K+]`: 0.0087 mg/mL; `CSc1ccccc1-c1nc(-c2ccncc2)no1`: 0.0012 mg/mL (≈ 4.46 µM); `CC(=O)c1ccc(NC(=S)NC(=O)/C=C/c2ccco2)cc1`: 0.0014 mg/mL (≈ 4.45 µM). Next, `Cc1ncn2cc(-c3ccc(Cl)cc3Cl)[nH]c(=O)c12`: 0.0028 mg/mL (≈ 9.52 µM); `Fc1cc2[nH]cnc2cc1Cl`: over 0.0256 mg/mL; `CC(=O)CCN1C(=O)NC2(CCCc3ccccc32)C1=O` (centres undefined): over 0.0429 mg/mL. `CC(C)(C)C(=O)Nc1cc2c3c(c1)CC(=O)N3CCC2`: the solubility (kinetic) is 0.0359 mg/mL (≈ 132 µM).

For the compound `CCN(CC(=O)NCc1ccc(F)cc1)C(=O)c1ccc(C)o1`, the solubility (kinetic) was over 0.0478 mg/mL. Next, `CC(=O)Nc1ccc(S(=O)(=O)N(C)c2ccc(OCCOc3cccc(C)c3)cc2)cc1`: 0.005 mg/mL (≈ 11 µM); `Cc1ccc2c(C)c(C(=O)N(C)Cc3nccn3C)oc2c1C`: over 0.0467 mg/mL. Next, `O=C(NC1CCN(C(=O)Nc2ccc(F)cc2)CC1)c1cccc(F)c1`: 0.006 mg/mL (≈ 16.7 µM); `COc1ccccc1NC(=S)NC(=O)CCc1ccccc1`: 0.0007 mg/mL (≈ 2.23 µM). Next, `Oc1ccccc1C(=S)N1CCCC1`: over 0.0311 mg/mL. `C[C@H](C(=O)NCc1ccccc1)C(=O)c1ccccc1` came in with a solubility (kinetic) of over 0.0401 mg/mL.

`Cc1csc(C)[n+]1CC(=O)c1ccccc1.[Br-]` gave a kinetic solubility of over 0.0468 mg/mL.

Turning to `CC(Nc1nc(-c2ccccc2O)nc2ccccc12)c1ccccc1` (centres undefined), the kinetic solubility is under 0.0002 mg/mL. Next, `COC(=O)CCC(=O)NC(=S)Nc1ccc(S(=O)(=O)Nc2cc(C)on2)cc1`: 0.0574 mg/mL (≈ 135 µM).

As to `CC1CCN(C(=O)CC#N)CC1`, the solubility (kinetic) was over 0.0249 mg/mL.

The compound `COc1ccc(CNc2c(CO)cnc3c2cnn3C)cc1` displayed a kinetic solubility of over 0.0448 mg/mL. Next, `O=C(NC1CCCCC1)Oc1ccccc1`: 0.0183 mg/mL (≈ 83.5 µM). With `Cl.NCCSC1CC(=O)N(c2ccc(Cl)c(Cl)c2)C1=O` (centres undefined), the kinetic solubility turned out to be 0.0328 mg/mL. On to `COc1ccc(Nc2ncc(C#N)c(N)n2)c(OC)c1`, for which the solubility (kinetic) amounted to 0.0066 mg/mL (≈ 24.3 µM). Next, `CCOC(=O)/C(C(=Nc1ccccc1)Nc1ccccc1)=C(\C)O`: 0.0295 mg/mL (≈ 90.9 µM); `CC(C)C(NC(=O)c1ccc(F)cc1)C(=O)N1CCN(c2ccccn2)CC1` (centres undefined): 0.0258 mg/mL (≈ 67.1 µM); `CC(=O)c1cccc(NC(=O)Nc2ccc3c(c2)OCO3)c1`: 0.0031 mg/mL (≈ 10.4 µM).

As to `O=C(CN1CCCC1)Nc1ccc(Br)cc1[N+](=O)[O-]`, the kinetic solubility came to 0.0203 mg/mL (≈ 61.9 µM). Next, `COc1ccc(NC(=O)c2cc([N+](=O)[O-])ccc2N2CCCCC2)cc1OC`: 0.014 mg/mL (≈ 36.3 µM). Next, `OC1/C(=C/c2ccc(Cl)cc2Cl)N2CCC1CC2` (centres undefined): 0.028 mg/mL (≈ 98.5 µM); `O=C(COC(=O)c1ccc(Br)cc1)NC1CCCC1`: 0.0054 mg/mL (≈ 16.6 µM). The compound `O=C(Nc1cccc(O)c1)C1CC(c2ccc(Cl)cc2)=NO1` (centres undefined) had a kinetic solubility of 0.0023 mg/mL (≈ 7.26 µM).

In turn, `Cc1cc(=O)c2ccc(C(F)(F)F)cc2[nH]1` returned a solubility (kinetic) of over 0.0341 mg/mL.

In turn, `COc1ccccc1CNc1nc(C)c(C(C)=O)s1` displayed a kinetic solubility of 0.0121 mg/mL (≈ 43.8 µM). Next, `CN(CC(=O)Nc1ccccc1C(F)(F)F)C(=O)CSc1nnc(-c2ccncc2)n1C`: over 0.0697 mg/mL; `CCCn1c(=O)c(C(=O)Nc2ncccc2O)c(O)c2ccccc21`: 0.0041 mg/mL (≈ 12.1 µM); `COc1ccc(C(=O)NCC(=O)Nc2cccc(S(=O)(=O)N3CCCC3)c2)cc1`: 0.0601 mg/mL (≈ 144 µM). Next, `O=C(NCc1c[nH]c2ccccc12)c1ccccc1`: over 0.0375 mg/mL; `O=C(NC1CCS(=O)(=O)C1)c1cccc(Br)c1` (centres undefined): over 0.0477 mg/mL.

Regarding `COc1ccc(OC)c(NC(=O)CSc2nc(O)cc(=O)n2CC(C)C)c1`, the kinetic solubility was over 0.059 mg/mL.

Compound `CC(=O)Nc1nonc1-c1nc2ccccc2n1C` returned a solubility (kinetic) of 0.0031 mg/mL (≈ 12.1 µM). Next, `Cc1cc(=O)cc(C)n1-c1ccccc1N`: 0.0311 mg/mL (≈ 145 µM). Next, `Cc1onc(-c2c(Cl)cccc2Cl)c1C(O)c1ccccc1` (centres undefined): over 0.0501 mg/mL.

Compound `CC1CCCCN1S(=O)(=O)c1cccc2nonc12` (centres undefined) had a kinetic solubility of 0.0396 mg/mL (≈ 141 µM). Next, `COC(CNC(=O)c1ccc2nc3ccccc3c(=O)n2c1)OC`: 0.049 mg/mL (≈ 150 µM). Next, `CN(CC(=O)NCCc1ccccc1)Cc1ccco1`: over 0.0409 mg/mL; `COC(=O)c1cc(NC(=O)c2cccnc2)cc(C(=O)OC)c1`: 0.0056 mg/mL (≈ 17.8 µM); `CCCCC(=O)Nc1cccc(NC(=O)c2cccnc2Cl)c1`: over 0.0498 mg/mL. Next, `Cc1ccc(OC(C)C(=O)Nc2ccncc2)cc1C` (centres undefined): 0.034 mg/mL (≈ 126 µM); `Cc1[nH]c(=O)[nH]c(=O)c1S(=O)(=O)Nc1ccc(F)cc1F`: over 0.0476 mg/mL; `COc1ccccc1/C=C/C(=O)OCC(=O)Nc1ccc2c(c1)OCO2`: 0.0033 mg/mL (≈ 9.29 µM). In the case of `O=C(Cc1ccccc1)Nc1c(Cl)ccc2nsnc12`, the kinetic solubility was 0.0049 mg/mL (≈ 16.1 µM). Next, `CCc1cccc(NC(=O)C2CCN(c3ncnc4sc(C)c(C)c34)CC2)c1`: 0.0027 mg/mL (≈ 6.84 µM); `S=c1[nH]nc(-c2cccc3ccccc23)n1-c1cccnc1`: over 0.0457 mg/mL; `CC(=O)c1ccc(-n2ccnc2)cc1`: over 0.0279 mg/mL. Next, `Cc1ccc(N=Cc2ccc(N(C)C)cc2)cc1C`: 0.0203 mg/mL (≈ 80.4 µM).

In turn, `CN1C(=O)NC(c2ccc(Cl)cc2)C2=C1CC(C)(C)CC2=O` (centres undefined) displayed a kinetic solubility of over 0.0478 mg/mL. Next, `COc1ccc(NC(=O)CN2CCN(c3ccccc3C)CC2)cc1`: 0.0355 mg/mL (≈ 105 µM); `Nc1nc(F)cc(NCc2ccccc2)n1`: over 0.0327 mg/mL. The compound `COc1ccc(NC2CCCN(C(=O)c3cccnc3)C2)cc1` (centres undefined) displayed a kinetic solubility of over 0.0467 mg/mL.

`COc1ccc(OC)c(NC2=NCCS2)c1` came in with a solubility (kinetic) of over 0.0357 mg/mL. Next, `Cc1ccc(S(=O)(=O)NCCN2CCOCC2)s1`: over 0.0436 mg/mL; `COC(Cn1cc(C)c(=O)[nH]c1=O)OC`: 0.0303 mg/mL (≈ 141 µM). Next, `Cc1ccc(C(=O)NCCNC(=O)COc2ccccc2Cl)cn1`: over 0.0522 mg/mL. Next, `CCOc1ccccc1N1CN(C2CCCCC2)CNC1=S`: over 0.0479 mg/mL; `Cc1cc(C)c(C(=O)CSc2nc(C)cc(=O)[nH]2)c(C)c1`: 0.014 mg/mL (≈ 46.3 µM).

`COc1ccc(CC(=O)OCC(=O)NCc2ccc(C)cc2)cc1OC` showed a kinetic solubility of over 0.0536 mg/mL. Next, `CN(C)C(=O)CCCCCCCCC(=O)N(C)C`: over 0.0385 mg/mL. Next, `O=C(CSc1nccc(=O)[nH]1)NC1CCCCCC1`: over 0.0422 mg/mL.

Take `O=C(Nc1cccc(S(=O)(=O)N2CCCCCC2)c1)c1cncc(Br)c1`: the solubility (kinetic) was 0.0131 mg/mL (≈ 29.9 µM). Next, `CCOC(=O)c1c(N)sc2c1CCN(CCc1ccccc1)C2`: 0.0317 mg/mL (≈ 95.9 µM); `COc1cc(/C=C/c2noc(-c3ccccc3O)n2)ccc1OC(C)=O`: under 0.0004 mg/mL; `COc1ccccc1N1CCN(C(=O)c2cc3cc(Cl)ccc3[nH]2)CC1`: under 0.0003 mg/mL. Next, `COc1cc(NC(=O)CCc2c(C)noc2C)c(Cl)cc1C(=O)O`: over 0.0529 mg/mL; `O=C(COC(=O)C1CC(=O)N(Cc2ccccc2)C1)Nc1cccc([N+](=O)[O-])c1` (centres undefined): over 0.0596 mg/mL.

Compound `CC(CN1CCC(O)CC1)c1ccccc1` (centres undefined) gave a kinetic solubility of 0.0266 mg/mL (≈ 121 µM). Next, `CC(C)c1ccccc1NC(=O)Nc1ccc(F)cc1F`: 0.0027 mg/mL (≈ 9.3 µM); `COc1ccc(NC(=O)CC2CCCC2)cc1OC`: over 0.0395 mg/mL; `O=C(CCl)Nc1ccc(S(=O)(=O)NC2=NCCCCC2)cc1`: over 0.0516 mg/mL.

In turn, `NC(=Nc1ccc(Cl)cc1)c1ccccc1` showed a kinetic solubility of over 0.0346 mg/mL.

Compound `O=C(CCC(=O)Nc1ccc(F)cc1)N/N=C/c1cccnc1` displayed a kinetic solubility of over 0.0471 mg/mL. In the case of `Cc1cc(C)c2cc(C(=O)N3CCc4ccccc4C3)[nH]c2c1`, the solubility (kinetic) was determined as 0.0005 mg/mL (≈ 1.64 µM). `COc1ccc(NC(=O)C2CCCN(C(=O)Nc3ccc(F)cc3)C2)cc1` (centres undefined): the kinetic solubility was 0.0124 mg/mL (≈ 33.4 µM). Next, `N#Cc1ccsc1NC(=O)COC(=O)CCS(=O)(=O)c1ccccc1`: over 0.0568 mg/mL; `Cc1ccc(N2C(=O)C(F)(F)C2c2ccccc2)cc1` (centres undefined): 0.001 mg/mL (≈ 3.66 µM); `COc1ccc(S(=O)(=O)N2CC(=O)Nc3ccccc32)cc1C`: over 0.0499 mg/mL. Next, `Cc1ccsc1C(=O)OCC(=O)NC1CCCC(C)C1C` (centres undefined): 0.0113 mg/mL (≈ 36.5 µM). `Cc1ccc(C(=O)COc2nc(C)nc3ccccc23)cc1` displayed a kinetic solubility of 0.0043 mg/mL (≈ 14.7 µM). On to `Cc1c(C(=O)N2CCNCC2)oc2ccccc12.Cl`, for which the solubility (kinetic) was found to be 0.0409 mg/mL. `CC(C)CNC(=O)COc1ncnc2sccc12` gave a solubility (kinetic) of over 0.0398 mg/mL.

On to `Cc1ccc(C(=O)N(CC(C)C)c2nc3ccccc3s2)o1`, for which the kinetic solubility was 0.0005 mg/mL (≈ 1.59 µM). As for `O=C(CNC(=O)N1CC(=O)Nc2ccccc21)Nc1ccccc1`, the kinetic solubility is over 0.0487 mg/mL.

The compound `CCOCCCNC(c1ccccc1)c1ccncc1` (centres undefined) gave a solubility (kinetic) of 0.038 mg/mL (≈ 141 µM).

The compound `O=C(NCc1ccccc1)N1CCOCC1` yielded a solubility (kinetic) of over 0.033 mg/mL.

Broadly, the kinetic solubility is solubility judged after dilution from a stock solution rather than from solid.

For the origin of these results see PubChem BioAssay AID1996.
